Literature values, collected in article PMC8583936, “Machine Learning Assisted Approach for Finding Novel High Activity Agonists of Human Ectopic Olfactory Receptors” (International Journal of Molecular Sciences, 2021).
Where two headings read alike, the source gives them in different places.

How the values were obtained:
OR1A1 = target: T1, OR1A1 (Homo sapiens, UniProt Q9P1Q5); conditions: cited from earlier work
T1 sequence (Q9P1Q5 1-309): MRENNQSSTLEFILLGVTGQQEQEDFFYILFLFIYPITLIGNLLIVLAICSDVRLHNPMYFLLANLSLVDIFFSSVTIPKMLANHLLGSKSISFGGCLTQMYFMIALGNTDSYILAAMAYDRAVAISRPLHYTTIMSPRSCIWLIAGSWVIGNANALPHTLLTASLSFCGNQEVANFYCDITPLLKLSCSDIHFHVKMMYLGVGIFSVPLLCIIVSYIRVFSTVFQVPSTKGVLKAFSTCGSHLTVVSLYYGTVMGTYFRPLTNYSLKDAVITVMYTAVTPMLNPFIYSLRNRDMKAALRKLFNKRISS

OR2W1 = target: T2, OR2W1 (Homo sapiens, UniProt Q9Y3N9); conditions: cited from earlier work
T2 sequence (Q9Y3N9 1-320): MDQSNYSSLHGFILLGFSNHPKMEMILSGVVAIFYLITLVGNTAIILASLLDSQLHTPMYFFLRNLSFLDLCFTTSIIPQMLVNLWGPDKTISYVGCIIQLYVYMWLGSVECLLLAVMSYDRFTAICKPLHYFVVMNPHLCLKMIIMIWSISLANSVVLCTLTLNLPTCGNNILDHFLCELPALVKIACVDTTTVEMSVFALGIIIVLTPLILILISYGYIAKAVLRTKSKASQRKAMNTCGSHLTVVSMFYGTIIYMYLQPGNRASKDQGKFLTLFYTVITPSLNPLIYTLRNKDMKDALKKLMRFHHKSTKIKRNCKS

[1] = Table S1, ref Supplement references [1]-[9] as printed after each odorant name
[2] = Table S2, ref Supplement references [2]-[12] as printed after each odorant name

| SMILES | Class (agonist / non-agonist / conflicting info.) for OR1A1 (OR1A1) | Class (agonist / non-agonist / antagonist / conflicting info.) for OR2W1 (OR2W1) | Class (agonist / non-agonist / conflicting info.) for OR1A1 (OR1A1; [1]) | Class (agonist / non-agonist / antagonist / conflicting info.) for OR2W1 (OR2W1; [2]) |
| --- | --- | --- | --- | --- |
| CCCCCCCOC(=O)C(C)C [Heptyl isobutyrate] | Non-agonist | Non-agonist |  |  |
| CCCCCC=O [Hexanal] |  |  | Non-agonist | Conflicting info. |
| CCCCCC(=O)O [Hexanoic acid] | Non-agonist | Non-agonist |  |  |
| CCCCCCO [Hexanol] |  |  | Non-agonist | Conflicting info. |
| CCCCCCOC(C)=O [Hexyl acetate] |  |  | Non-agonist | Agonist |
| CCC1OC(C)=C(O)C1=O (stereo not drawn) [Homofuraneol] |  |  | Non-agonist | Non-agonist |
| CC(CC=O)CCCC(C)(C)O (stereo not drawn) [Hydroxy-citronellal] |  |  | Conflicting info. | Non-agonist |
| CC(=O)OCCC(C)C [Isoamyl acetate] |  |  | Non-agonist | Agonist |
| CC(C)CO [Isobutyl alcohol] |  |  | Non-agonist | Non-agonist |
| CC(C)CN [Isobutyl amine] |  |  | Conflicting info. | Antagonist |
| CC(C)C=O [Isobutylraldehyde] |  |  | Non-agonist | Non-agonist |
| CC(C)C(=O)O [Isobutyric acid] |  |  | Non-agonist | Non-agonist |
| CC(C)CC=O [Isovaleraldehyde] |  |  | Non-agonist | Non-agonist |
| CC(C)CC(=O)O [Isovaleric acid] |  |  | Non-agonist | Antagonist |
| C=CC(C)(O)CCC=C(C)C (stereo not drawn) [Linalool] |  |  | Conflicting info. | Non-agonist |
| CC(C)(O)CCCC1=CCC(C=O)CC1 (stereo not drawn) [Lyral] |  |  | Conflicting info. | Non-agonist |
| Cc1occc(=O)c1O [Maltol] |  |  | Non-agonist | Non-agonist |
| CC(C)[C@@H]1CC[C@@H](C)CC1=O [Menthone] |  |  | Conflicting info. | Non-agonist |
| CSCCC=O [Methional] |  |  | Non-agonist | Non-agonist |
| CSCCCO [Methionol] |  |  | Non-agonist | Non-agonist |
| CSSc1ccoc1C [Methyl 2-methyl-3-furyl disulfide] |  |  | Non-agonist | Non-agonist |
| CCC(C)C(=O)OC (stereo not drawn) [Methyl 2-methylbutyrate] |  |  | Non-agonist | Non-agonist |
| COC(=O)c1ccccc1N [Methyl anthranilate] | Non-agonist | Agonist |  |  |
| COC(=O)c1ccccc1 [Methyl benzoate] | Non-agonist | Non-agonist |  |  |
| CCCC(=O)OC [Methyl butyrate] | Non-agonist | Non-agonist |  |  |
| COC(=O)C=Cc1ccccc1 [Methyl cinnamate] |  |  | Non-agonist | Agonist |
| CSSCc1ccco1 [Methyl furfuryl disulfide] |  |  | Conflicting info. | Non-agonist |
